According to patent US20240041042A1, “1-(PYRIDYL)-5-AZINYLPYRAZOLE DERIVATIVES, AND THEIR USE FOR CONTROL OF UNDESIRED PLANT GROWTH” (Bayer Aktiengesellschaft, priority 2020, published 2024):
Read-outs that look alike come from different tables or passages of the source.

Legend:
Format in all cases: in vivo
[1] = tested on: Amaranthus retroflexus (AMARE); assay: Pre-emergence herbicidal action against AMARE; details: visual scoring after about 3 weeks vs untreated controls
Procedure, shortened: (§1)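 Greenhouse pot trial: seeds sown, soil-covered, sprayed before emergence with compound in water (0.5% additive; 600 l/ha; ≤320 g/ha). Scoring visual, ~3 weeks, 0–100% scale vs untreated.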

[2] = tested on: Matricaria inodora (MATIN); assay: Post-emergence herbicidal action against MATIN
Procedure, shortened: (§2)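 Rates were 320 g/ha or below, applied as aqueous WP/EC spray with 0.5% additive (600 l/ha) onto one-leaf-stage plants. About 3 weeks later in the greenhouse, damage was scored visually against untreated plants on a 0–100% scale, where 100% means plants died.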

[3] = tested on: Echinochloa crus-galli (ECHCG); assay: Post-emergence herbicidal action against ECHCG
Procedure, shortened: as §2

[4] = tested on: Pharbitis purpurea (PHBPU); assay: Post-emergence herbicidal action against PHBPU; details: dosage 320 g/ha
Procedure, shortened: as §2

Lolium rigidum (LOLRI) [5] = assay: Pre-emergence herbicidal action against LOLRI; details: dosage 320 g/ha
Procedure, shortened: as §1

[6] = tested on: Amaranthus retroflexus (AMARE); assay: Post-emergence herbicidal action against AMARE
Procedure, shortened: as §2

Lolium rigidum (LOLRI) [7] = assay: Post-emergence herbicidal action against LOLRI; details: dosage 320 g/ha
Procedure, shortened: as §2

[8] = tested on: Matricaria inodora (MATIN); assay: Pre-emergence herbicidal action against MATIN
Procedure, shortened: as §1

Setaria viridis (SETVI) [9] = assay: Pre-emergence herbicidal action against SETVI
Procedure, shortened: as §1

[10] = tested on: Verconica persica (VERPE); assay: Post-emergence herbicidal action against VERPE
Procedure, shortened: as §2

[11] = tested on: Polygonum convolvulus (POLCO); assay: Post-emergence herbicidal action against POLCO; details: dosage 320 g/ha
Procedure, shortened: as §2

Zea mays (ZEAMX) [12] = details: for Post-emergence action against ZEAMX in %: crop plant compatibility, effect vs untreated controls
Procedure, shortened: (§3)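 Effects were read visually as % versus untreated controls (0% = no effect, 100% = death) about 3 weeks post-treatment. Application was a post-emergence spray at the one-leaf stage of WP/EC formulations with 0.5% additive at 600 l/ha. Different dosages are denoted a, b and c.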

[13] = tested on: Echinochloa crus-galli (ECHCG); assay: Pre-emergence herbicidal action against ECHCG
Procedure, shortened: as §1

[14] = tested on: Alopecurus myosuroides (ALOMY); assay: Pre-emergence herbicidal action against ALOMY; details: scored visually after about 3 weeks, 100% = plants have died
Procedure, shortened: as §1

Avena fatua (AVEFA) [15] = assay: Post-emergence herbicidal action against AVEFA; details: 320 g/ha, visual rating about 3 weeks after treatment
Procedure, shortened: as §2

[16] = tested on: Alopecurus myosuroides (ALOMY); assay: Post-emergence herbicidal action against ALOMY; details: visual rating about 3 weeks after treatment vs untreated controls (100% = plants have died, 0% = like control plants)
Procedure, shortened: as §2

Zea mays (ZEAMX) [17] = details: pre-emergence, crop plant compatibility, in comparison to untreated controls
Text: Seeds of monocotyledonous and dicotyledonous weed plants and crop plants are placed in plastic or organic planting pots and covered with soil. The compounds of the invention, formulated in the form of wettable powders (WP) or as emulsion concentrates (EC), are then applied to the surface of the covering soil as aqueous suspension or emulsion with addition of 0.5% additive at a water application rate equivalent to 600 l/ha. After the treatment, the pots are placed in a greenhouse and kept under good growth conditions for the trial plants. After about 3 weeks, the effect of the preparations is scored visually in comparison with untreated controls as percentages. For example, 100% activity=the plants have died, 0% activity=like control plants.
The observed effects on selected crop plants are reported here in comparison to the untreated controls (values in %). The appendices “a” “b” and “c” give differentiation by dosage used with otherwise the same crop plants tested.

Setaria viridis (SETVI) [18] = assay: Post-emergence herbicidal action against SETVI
Procedure, shortened: as §2

[19] = tested on: Pharbitis purpurea (PHBPU); assay: Pre-emergence herbicidal action against PHBPU; details: dosage 320 g/ha
Procedure, shortened: as §1

[20] = tested on: Polygonum convolvulus (POLCO); assay: Pre-emergence herbicidal action against POLCO
Procedure, shortened: as §1

Viola tricolor (VIOTR) [21] = assay: Pre-emergence herbicidal action against VIOTR
Procedure, shortened: as §1

[22] = tested on: Verconica persica (VERPE); assay: Pre-emergence herbicidal action against VERPE
Procedure, shortened: as §1

Avena fatua (AVEFA) [23] = assay: Pre-emergence herbicidal action against AVEFA; details: 320 g/ha, visual scoring after about 3 weeks vs untreated controls
Procedure, shortened: as §1

Oryza sativa (ORYSA) = details: crop plant compatibility
Procedure, shortened: as §3

[24] = tested on: Abutilon theophrasti (ABUTH); assay: Post-emergence herbicidal action against ABUTH; details: visual rating about 3 weeks after treatment vs untreated controls (100% = plants have died, 0% = like control plants)
Procedure, shortened: as §2

Viola tricolor (VIOTR) [25] = assay: Post-emergence herbicidal action against VIOTR
Procedure, shortened: as §2

[26] = tested on: Triticum aestivum (TRZAS); details: crop plant compatibility, 80 g/ha, effect vs untreated controls
Procedure, shortened: as §3

[27] = 80 g/ha, visual rating about 3 weeks after treatment vs untreated controls (100% = plants have died, 0% = like control plants)
[28] = 320 g/ha, visual rating about 3 weeks after treatment
[29] = 80 g/ha, effect in comparison to untreated controls

Row | Post-emergence action against ZEAMX in % (Zea mays (ZEAMX) [12]; 80 g/ha) [%] | Pre-emergence action against ZEAMX in % (Zea mays (ZEAMX) [17]; 80 g/ha) [%] | Post-emergence action against ORYSA in % (Oryza sativa (ORYSA); [29]) [%] | SMILES | Pre-emergence action against AMARE in % ([1]; 320 g/ha) [%] | Post-emergence action against MATIN in % ([2]; dosage 320 g/ha) [%] | Post-emergence action against ECHCG in % ([3]; dosage 80 g/ha) [%] | Post-emergence action against ECHCG in % ([3]; dosage 320 g/ha) [%] | Post-emergence action against PHBPU in % [4] [%] | Pre-emergence action against LOLRI in % (Lolium rigidum (LOLRI) [5]) [%] | Post-emergence action against AMARE in % [6, 27] [%] | Post-emergence action against AMARE in % [6, 28] [%] | Pre-emergence action against MATIN in % ([8]; dosage 320 g/ha) [%] | Pre-emergence action against SETVI in % (Setaria viridis (SETVI) [9]; dosage 320 g/ha) [%] | Post-emergence action against VERPE in % ([10]; 320 g/ha, VERPE) [%] | Post-emergence action against POLCO in % [11] [%] | Pre-emergence action against ECHCG in % ([13]; dosage 320 g/ha) [%] | Pre-emergence action against ALOMY ([14]; 320 g/ha) [%] | Post-emergence action against SETVI in % (Setaria viridis (SETVI) [18]; dosage 320 g/ha) [%] | Pre-emergence action against POLCO in % ([20]; dosage 320 g/ha) [%] | Pre-emergence action against VIOTR in % (Viola tricolor (VIOTR) [21]; 320 g/ha, Viola tricolor) [%] | other results
1 | 0 | 0 | – | CCOC(=O)COc1nn(-c2ccccn2)c(-c2ccc(F)nc2)c1F [Example I-305] | 90 | 80 | 90 | 90 | 90 | 90 | 80 | 90 | 90 | 90 | 90 | 80 | 90 | 90 | 90 | – | – | Pre-emergence action against AMARE in % ([1]; 80 g/ha): 80%; Post-emergence action against LOLRI in % (Lolium rigidum (LOLRI) [7]): 90%; Pre-emergence action against MATIN in % ([8]; dosage 80 g/ha): 80%; Post-emergence action against AVEFA in % (Avena fatua (AVEFA) [15]): 80%; Post-emergence action against ALOMY in % ([16]; 320 g/ha): 100%
2 | – | 0 | 20 | O=C(COc1nn(-c2ccccn2)c(-c2ccc(F)nc2)c1Br)OCC1CCCO1 (stereo not shown) [Example I-93] | 100 | – | – | – | – | 100 | 80 | – | 100 | 100 | – | – | 100 | 100 | – | 90 | 100 | Pre-emergence action against AMARE in % ([1]; 80 g/ha): 90%; Post-emergence action against MATIN in % ([2]; dosage 80 g/ha): 80%; Pre-emergence action against PHBPU in % [19]: 80%; Pre-emergence action against POLCO in % ([20]; dosage 80 g/ha): 90%; Pre-emergence action against VERPE in % ([22]; dosage 320 g/ha): 100%; Pre-emergence action against AVEFA in % (Avena fatua (AVEFA) [23]): 90%; Post-emergence action against VERPE in % ([10]; dosage 80 g/ha): 80%; Post-emergence action against ZEAMX in % (crop plant compatibility) (Zea mays (ZEAMX) [12]; 20 g/ha, ZEAMX, effect in comparison to untreated controls): 20%; Post-emergence action against ORYSA in % (Oryza sativa (ORYSA); 20 g/ha, effect vs untreated controls): 10%; Pre-emergence action against ALOMY ([14]; 80 g/ha): 90%; Post-emergence action against ALOMY in % ([16]; 80 g/ha): 100%
3 | 20 | 10 | 10 | COCCOC(=O)COc1nn(-c2ncccc2C(F)(F)F)c(-c2cncc(F)c2)c1Br [Example I-157] | – | – | 80 | 90 | 80 | – | – | – | – | – | 90 | – | 80 | 80 | 80 | 90 | 100 | Pre-emergence action against PHBPU in % [19]: 90%; Pre-emergence action against VIOTR in % (Viola tricolor (VIOTR) [21]; dosage 80 g/ha): 80%; Pre-emergence action against VERPE in % ([22]; dosage 320 g/ha): 90%; Post-emergence action against VERPE in % ([10]; dosage 80 g/ha): 80%; Post-emergence action against ABUTH in % ([24]; 320 g/ha): 80%
4 | – | 20 | 20 | CCOC(=O)COc1nn(-c2ncccc2C(F)(F)F)c(-c2cncc(F)c2)c1Br [Example I-202] | 90 | – | 80 | 90 | 90 | – | – | 80 | 80 | 90 | 80 | 80 | 90 | 80 | 80 | 90 | 100 | Post-emergence action against VIOTR in % (Viola tricolor (VIOTR) [25]; 80 g/ha): 80%; Post-emergence action against VIOTR in % (Viola tricolor (VIOTR) [25]; 320 g/ha): 80%; Pre-emergence action against PHBPU in % [19]: 90%; Pre-emergence action against VIOTR in % (Viola tricolor (VIOTR) [21]; dosage 80 g/ha): 90%; Pre-emergence action against VERPE in % ([22]; dosage 80 g/ha): 80%; Pre-emergence action against VERPE in % ([22]; dosage 320 g/ha): 90%; Post-emergence action against TRZAS in % [26]: 20%; Post-emergence action against ABUTH in % ([24]; 320 g/ha): 80%
5 | – | 0 | 0 | O=C(O)CSc1nn(-c2ccccn2)c(-c2cncc(F)c2)c1I [Example I-229] | 80 | 80 | 80 | 80 | 80 | 80 | 80 | 80 | 80 | 90 | – | 80 | 90 | – | 80 | 90 | 90 | Post-emergence action against VIOTR in % (Viola tricolor (VIOTR) [25]; 80 g/ha): 80%; Post-emergence action against VIOTR in % (Viola tricolor (VIOTR) [25]; 320 g/ha): 80%; Post-emergence action against SETVI in % (Setaria viridis (SETVI) [18]; dosage 80 g/ha): 80%
6 | 10 | 20 | 20 | O=C(O)COc1nn(-c2nc(F)ccc2F)c(-c2ccc(F)nc2)c1Br [Example I-334] | 100 | 80 | 80 | 90 | 80 | 90 | 80 | 80 | 100 | 90 | 80 | 80 | 90 | 90 | – | 90 | 90 | Pre-emergence action against AMARE in % ([1]; 80 g/ha): 90%; Post-emergence action against VIOTR in % (Viola tricolor (VIOTR) [25]; 80 g/ha): 80%; Post-emergence action against VIOTR in % (Viola tricolor (VIOTR) [25]; 320 g/ha): 80%; Pre-emergence action against PHBPU in % [19]: 90%; Pre-emergence action against VERPE in % ([22]; dosage 320 g/ha): 80%; Post-emergence action against LOLRI in % (Lolium rigidum (LOLRI) [7]): 90%; Pre-emergence action against MATIN in % ([8]; dosage 80 g/ha): 80%; Pre-emergence action against AVEFA in % (Avena fatua (AVEFA) [23]): 90%; Pre-emergence action against SETVI in % (Setaria viridis (SETVI) [9]; dosage 80 g/ha): 90%; Post-emergence action against ZEAMX in % (Zea mays (ZEAMX) [12]; 320 g/ha): 20%; Pre-emergence action against ECHCG in % ([13]; dosage 80 g/ha): 80%; Pre-emergence action against ALOMY ([14]; 80 g/ha): 80%; Post-emergence action against ABUTH in % ([24]; 80 g/ha): 80%; Post-emergence action against ABUTH in % ([24]; 320 g/ha): 80%; Post-emergence action against AVEFA in % (Avena fatua (AVEFA) [15]): 80%; Post-emergence action against ALOMY in % ([16]; 320 g/ha): 90%
7 | 0 | 0 | 0 | O=C(O)COc1nn(-c2ccccn2)c(-c2ccc(F)nc2)c1F [Example I-373] | 90 | 90 | – | 90 | 80 | 80 | 80 | 80 | 90 | 80 | 90 | 80 | 90 | 90 | 90 | 90 | – | Post-emergence action against ABUTH in % ([24]; 320 g/ha): 80%; Pre-emergence action against ZEAMX in % (Zea mays (ZEAMX) [17]; 320 g/ha): 0%
